In brackets after ≈: the same amount, converted by molar mass.
Experiments:
Mycobacterium avium [1] = assay: Antimycobacterial activity against Mycobacterium avium CIP 103317; format: functional
Mycobacterium gordonae [2] = assay: Antimycobacterial activity against Mycobacterium gordonae CIP 6427; format: functional
Vero = assay: In vitro cytotoxicity against VERO cells.; format: functional, Chlorocebus sabaeus
[3] = system: Mycobacterium tuberculosis; assay: Antimycobacterial activity against Mycobacterium tuberculosis CIP 103471; format: functional
Mycobacterium marinum = assay: Antimycobacterial activity against Mycobacterium marinum CIP 6423; format: functional
[4] = system: Mycolicibacterium smegmatis; assay: Antibacterial activity against Mycobacterium smegmatis CIP 103599.; format: functional
Mycobacterium gordonae [5] = assay: Compound was tested for anti-mycobacterial activity against Mycobacterium gordonae CIP 6427; format: functional
[6] = system: Mycobacterium tuberculosis; assay: Compound was tested for anti-mycobacterial activity against Mycobacterium tuberculosis CIP 103471; format: functional
Mycobacterium avium [7] = assay: Compound was tested for anti-mycobacterial activity against Mycobacterium avium CIP 103317; format: functional

Structure (SMILES)	MIC (Mycobacterium avium [1]) [µg/mL]	MIC (Mycobacterium gordonae [2]) [µg/mL]	MTD50 (Vero) [µg/mL]	MIC [3] [µg/mL]	MIC (Mycobacterium marinum) [µg/mL]	MIC [4] [µg/mL]	MIC (Mycobacterium gordonae [5]) [µg/mL]	MIC [6] [µg/mL]	MIC (Mycobacterium avium [7]) [µg/mL]
COc1ccc(-c2c[nH]cc2[N+](=O)[O-])c(Cl)c1	16 (≈ 63.3 µM)	> 16	2	> 16	> 16	> 16			
CCOC(=O)c1cn(Cc2ccc(F)cc2)cc1-c1ccccc1	16 (≈ 49.5 µM)	> 16	4	> 16	> 16	> 16			
CCOC(=O)c1cn(C)cc1-c1ccc(Cl)cc1	> 16	> 16		> 16	> 16	> 16			
O=[N+]([O-])c1c[nH]cc1-c1cc(Cl)cc(Cl)c1	16 (≈ 62.2 µM)	> 16	1	8 (≈ 31.1 µM)	> 16	> 16			
CCOC(=O)c1c[nH]cc1-c1ccc(Cl)cc1	4 (≈ 16 µM)	> 16	4	16 (≈ 64.1 µM)	> 16	> 16			
Cn1cc(-c2ccc(Cl)cc2Cl)c([N+](=O)[O-])c1	> 16	> 16		> 16	> 16	> 16			
Cn1cc(-c2ccc(Cl)cc2)c([N+](=O)[O-])c1	> 16	> 16		> 16	> 16	> 16			
Cn1cc(-c2ccccc2Cl)c([N+](=O)[O-])c1	> 16	> 16		> 16	> 16	> 16			
NC(=O)c1c[nH]cc1-c1ccc(Cl)cc1Cl	16 (≈ 62.7 µM)	> 16	0.125	> 16	> 16	> 16			
CCOC(=O)c1cn(Cc2ccc(F)cc2)cc1-c1ccc(OC)cc1	> 16	> 16	2	16 (≈ 45.3 µM)	> 16	> 16			
O=[N+]([O-])c1c[nH]cc1-c1c(Cl)cccc1Cl	> 16	> 16		> 16	> 16	> 16			
O=[N+]([O-])c1c[nH]cc1-c1ccc(Cl)c(Cl)c1	16 (≈ 62.2 µM)	> 16	2	8 (≈ 31.1 µM)	> 16	> 16			
NNC(=O)c1ccncc1 [ISONIAZID]	32 (≈ 233 µM)	32 (≈ 233 µM)	32	0.25 (≈ 1.82 µM)	16 (≈ 117 µM)	64 (≈ 467 µM)			
O=[N+]([O-])c1c(Cl)cccc1-c1c[nH]cc1Cl [PYRROLNITRIN]			8		> 16	16 (≈ 62.2 µM)	> 16	4 (≈ 15.6 µM)	8 (≈ 31.1 µM)
CN[C@@H]1[C@H](O[C@H]2[C@H](O[C@H]3[C@H](O)[C@@H](O)[C@H](N=C(N)N)[C@@H](O)[C@@H]3N=C(N)N)O[C@@H](C)[C@]2(O)C=O)O[C@@H](CO)[C@H](O)[C@H]1O [STREPTOMYCIN]	8 (≈ 13.8 µM)	16 (≈ 27.5 µM)	128	0.5 (≈ 0.86 µM)	32 (≈ 55 µM)	8 (≈ 13.8 µM)			
